The record followed here is publication PMC4320154, “Treatment of Methicillin-resistant Staphylococcus aureus experimental Osteomyelitis with bone-targeted Vancomycin” (SpringerPlus, 2013).

Where a name gives a salt, the structure may show the parent alone. Read-outs that look alike come from different tables or passages of the source.

The format of data set [1] is in vivo, male Wistar rats. On the procedure: (§1) Four weeks after establishing infection, five rats were sacrificed, the left tibia aseptically removed and quantitative cultures performed. The remaining animals underwent surgical débridement of the infection site with sterile saline and were arbitrarily assigned to one of five study arms for a duration of 21 days: No treatment (n=17), vancomycin HCl every 12 hours (n=17, 42 doses), BT2-peg2-vancomycin diformate every 12 hours (n=17, 42 doses), BT2-peg2-vancomycin diformate every 12 hours for 3.5 days and then every fourth day thereafter (n=16, 11 doses), and BT2-peg2-vancomycin diformate once per week (n=15, 3 doses). Vancomycin HCl was administered at 50 mg/kg and BT2-peg2-vancomycin diformate at 63.85 mg/kg (equivalent to 50 mg/kg active vancomycin); both were administered intraperitoneally. Twelve hours after completion of therapy (day 50), blood was collected via cardiac puncture for hematology and chemistry studies [performed by Charles River (Wilmington, MA)], and drug concentration studies. Rats were sacrificed with CO2. The left (infected) tibia from one animal in each group was collected for histopathology with bones placed in 10% neutralized buffered formalin (NBF), decalcified, embedded in […], prepared as longitudinal cuts and stained with hematoxylin and eosin. The left (infected) tibias from the remaining animals were weighed, cryopulverized and processed for quantitative and qualitative bacterial culture. Culture results were expressed as log10 cfu/g of bone tissue.
Kidneys from all animals were weighed, observed for abnormalities in size or color, and placed in NBF. Histological analysis was performed by Seventh Wave (Chesterfield, MO). Microscopic lesions were graded on a scale of one to four, with four being the most severe. Tubulointerstitial nephritis was characterized by multifocal non-suppurative interstitial inflammation, interstitial fibrosis, tubular epithelial degeneration, necrosis, and regeneration with frequent intra-tubular neutrophilic inflammation and cellular debris.

Data set [2] has as its system Thirty clinical isolates of MRSA. Description: microbe, parasite or virus in culture. In kind it is cell-based, Staphylococcus aureus. The settings on record: broth microdilution, CLSI, 30 MRSA isolates. How it is done:
(§2) Thirty clinical isolates of MRSA were studied. […] The minimum bactericidal concentration (MBC) of vancomycin HCl and BT2-peg2-vancomycin diacetate were also determined according to CLSI guidelines (Clinical and Laboratory Standards Institute [1999]).

Data set [3] in a line: Hydroxyapatite (HA) binding assay. The following applies: 50 mM Tris–HCl pH 7.4, 1% DMSO. On the procedure: 10^-5 M solutions of tetracycline, vancomycin HCl or BT2-peg2-vancomycin diacetate in 50 mM Tris–HCl buffer, pH 7.4, 1% DMSO were prepared. […] An HA slurry of 0.5 g HA/100 ml 50 mM Tris–HCl buffer, 1% DMSO was prepared. For each analyte, two samples were tested in triplicate. For one sample, 1 ml of 10^-5 M analyte and 100 μl 50 mM Tris–HCl buffer, 1% DMSO was pipetted into a microcentrifuge tube. For the second sample, 1 ml of 10^-5 M analyte and 100 μl of the HA slurry was pipetted into a microcentrifuge tube. The samples were mixed gently by inversion for five minutes and then centrifuged at 12,000 g for three minutes to sediment the HA. The supernatant was transferred to another microcentrifuge tube. An electronic spectral scan (ultraviolet–visible) from 220–520 nm was obtained for each analyte using a Varian Cary 300 Bio Scan (Agilent Technologies, Santa Clara, CA). The blank was 50 mM Tris–HCl buffer, 1% DMSO. The wavelength of maximum absorbance (λmax) was determined, and the extinction coefficient (ϵ) calculated using the Beer-Lambert law. Absorbance of the samples incubated with HA was measured at λmax, and the molar concentration of the analyte determined using the Beer-Lambert law and the previously calculated extinction coefficient. The fraction adsorbed to HA was calculated for each sample. […]

For data set [4], the system named is Thirty clinical isolates of MRSA. The format is cell-based, Staphylococcus aureus. The following applies: CLSI; 30 MRSA isolates. On the procedure: as §2
Another data set deals with MRSA IDRL-4293. The format is cell-based, Staphylococcus aureus. The settings on record: MRSA isolate used in the experimental osteomyelitis model. How it is done:
as §2
The experimental model described was performed in accordance with the guidelines of the Institutional Animal Care and Use Committee of the Mayo Clinic. Experimental osteomyelitis was established in 90 male Wistar rats using a modification of Zak’s model of experimental osteomyelitis (O'Reilly & Mader [1999]). […] Animals were anesthetized with ketamine and xylazine and the proximal third of the medial left tibia surgically exposed. A 0.5 mm hole was drilled into the medullary cavity. Fifty microliters of morrhuate sodium (a sclerosing agent) was injected into the cavity, followed by 50 μl sterile saline containing 10^7 colony forming units (cfu) of MRSA IDRL-4293. The muscle was reattached with coated vicryl sutures (Ethicon, Somerville, NJ). The skin was closed with tissue glue (Tissuemend, Butler Animal Health Supply, Dublin, OH) and wound clips (Harvard Apparatus, Holliston, MA). The wound was sprayed with a wound adhesive (Aluspray, Butler Animal Health Supply, Dublin, OH), along with a chewing repellent (Chewguard, Summit Hill Laboratories, Tinton Falls, NJ).

For data set [5], the system named is MRSA recovered from treated or untreated animals. The format is cell-based, Staphylococcus aureus. On the procedure: as §2
Ten MRSA colonies per animal recovered from quantitative bacterial cultures were tested for susceptibility to BT2-peg2-vancomycin diformate and/or vancomycin HCl.

Data set [6] can be described thus: Plasma concentrations in infected animals by LC/MS. In kind it is in vivo, male Wistar rats. The following applies: 12 h after last dose; twice daily for 21 days ip; vancomycin HCl 50 mg/kg (n=16), BTV 63.85 mg/kg (n=13); LC/MS. How it is done:
as §1
Plasma concentrations of BT2-peg2-vancomycin in infected animals were measured by liquid chromatography/mass spectrometry (LC/MS). […] The elutes (50 μl) were diluted with 450 μl 5% ACN in 0.1% formic acid and analyzed by Accela LC System (Thermo Scientific, San Jose, CA) coupled with a LTQ-Orbitrap XL mass spectrometer (Thermo Scientific, San Jose, CA). […] Elutes from the LC column were ionized by electrospray ionization and BT2-peg2-vancomycin and teicoplanin were detected by multiple reaction monitoring. […]
Plasma concentrations of vancomycin were measured by LC/MS. […]

For `CN[C@H](CC(C)C)C(=O)N[C@H]1C(=O)N[C@@H](CC(N)=O)C(=O)N[C@H]2C(=O)N[C@H]3C(=O)N[C@H](C(=O)N[C@H](C(=O)NCCOCCOCC(=O)Nc4ccc(OC)c(C(N)=O)c4O)c4cc(O)cc(O)c4-c4cc3ccc4O)[C@H](O)c3ccc(c(Cl)c3)Oc3cc2cc(c3O[C@@H]2O[C@H](CO)[C@@H](O)[C@H](O)[C@H]2O[C@H]2C[C@](C)(N)[C@H](O)[C@H](C)O2)Oc2ccc(cc2Cl)[C@H]1O` [BT2-peg2-vancomycin diformate], the kidney size in data set [1] (rat, in vivo) is listed as ~ 25.5 × 17.5 mm. For the same compound, in data set [1] (rat, in vivo, ip), the “kidney gross appearance (color, size)” value is “lighter in color and larger”; the “kidney histology: tubulointerstitial nephritis grade” value amounted to 4.
On to `Cc1onc(-c2ccccc2)c1C(=O)N[C@@H]1C(=O)N2[C@@H]1SC(C)(C)[C@@H]2C(=O)O` [oxacillin], for which the MIC50 in data set [2] (Staphylococcus aureus, read-out: MIC at which 50% of the isolates were inhibited (MIC50)) is above 128 µg/mL.
For the compound `CN(C)[C@@H]1C(O)=C(C(N)=O)C(=O)[C@@]2(O)C(O)=C3C(=O)c4c(O)cccc4[C@@](C)(O)[C@H]3C[C@@H]12` [tetracycline], the “fraction bound to HA” value in data set [3] (at 10^-5 M, reference analyte) is recorded as “approximately 50%”.
In data set [2], `CN[C@H](CC(C)C)C(=O)N[C@H]1C(=O)N[C@@H](CC(N)=O)C(=O)N[C@H]2C(=O)N[C@H]3C(=O)N[C@H](C(=O)N[C@H](C(=O)O)c4cc(O)cc(O)c4-c4cc3ccc4O)[C@H](O)c3ccc(c(Cl)c3)Oc3cc2cc(c3O[C@@H]2O[C@H](CO)[C@@H](O)[C@H](O)[C@H]2O[C@H]2C[C@](C)(N)[C@H](O)[C@H](C)O2)Oc2ccc(cc2Cl)[C@H]1O` [vancomycin HCl] displayed an MIC range of 0.5 to 2 µg/mL. In addition, in data set [4], the MBC (in general, the lowest tested concentration that kills the bacteria rather than only halting them) at which 50% of isolates were killed was determined as 2 µg/mL and the MBC range lay in the range of 0.5 to 64 µg/mL. In the data set with MRSA IDRL-4293, the MBC was determined as 2 µg/mL and the MIC is 2 µg/mL. Besides, the “kidney gross appearance (color, size)” value in data set [1] (every 12 hours for 21 days ip) was “deep maroon color and size consistent with body weight”. Besides, the “kidney histology: tubulointerstitial nephritis grade” value in data set [1] (every 12 hours for 21 days ip, lesions graded one to four, four most severe) is given as “did not exhibit microscopic abnormalities”. Moreover, the “Kidney weight, median (range)” value in data set [1] (twice daily for 21 days ip, vancomycin HCl 50 mg/kg, BTV 63.85 mg/kg, no treatment 1.4) was 1.4 (1.1-1.7) grams. Also, the “BUN, median (range)” value in data set [1] (twice daily for 21 days ip, vancomycin HCl 50 mg/kg, BTV 63.85 mg/kg, normal 9–30) is 18.5 (15–21) mg/dl. The “Creatinine, median (range)” value in data set [1] (twice daily for 21 days ip, vancomycin HCl 50 mg/kg, BTV 63.85 mg/kg, normal range 0.4 to 0.7) is 0.5 (0.4-0.6) mg/dl. Further, the “Albumin, median (range)” value in data set [1] (twice daily for 21 days ip, vancomycin HCl 50 mg/kg, BTV 63.85 mg/kg, normal range 3.2 to 4.5) was 3.4 (3.1-3.6) g/dl.
In data set [3] (10^-5 M analyte, HA slurry, mixed 5 min, UV–vis at λmax, triplicate, % bound/% tetracycline bound × 100), `CN[C@H](CC(C)C)C(=O)N[C@H]1C(=O)N[C@@H](CC(N)=O)C(=O)N[C@H]2C(=O)N[C@H]3C(=O)N[C@H](C(=O)N[C@H](C(=O)O)c4cc(O)cc(O)c4-c4cc3ccc4O)[C@H](O)c3ccc(c(Cl)c3)Oc3cc2cc(c3O[C@@H]2O[C@H](CO)[C@@H](O)[C@H](O)[C@H]2O[C@H]2C[C@](C)(N)[C@H](O)[C@H](C)O2)Oc2ccc(cc2Cl)[C@H]1O` [vancomycin] came in with an HA binding index of 0. Further, the “MIC at which 50% of the isolates were inhibited (MIC50)” value in data set [2] came out at 1 µg/mL. For the same compound, the “MIC at which 90% of the isolates were inhibited (MIC90)” value in data set [2] was 2 µg/mL. Besides, in data set [4], the “MBC at which 90% of isolates were killed (MBC90)” value worked out at 16 µg/mL. In addition, in data set [5] (all treatment groups), the “increase in MIC of recovered isolates” value is reported as “No increase in vancomycin or BT2-peg2-vancomycin MIC of more than one doubling dilution”. Besides, the “MIC of recovered MRSA” value in data set [5] (isolates from animals treated with BT2-peg2-vancomycin diformate once weekly) lay within 1 to 2 µg/mL; in data set [5] (isolates from animals treated with BT2-peg2-vancomycin diformate twice daily), 1 to 4 µg/mL; in data set [5] (isolates from animals treated with BT2-peg2-vancomycin diformate twice daily for 3.5 days then once every fourth day) it was 1 to 2 µg/mL; in data set [5] (isolates recovered from the untreated group), 1 to 2 µg/mL; in data set [5] (isolates recovered from vancomycin HCl-treated animals) it was 2 to 4 µg/mL. Further, in data set [6], the “Plasma concentration, median” value worked out at 710 ng/mL.
